Patent US20240158446A1, “CYCLIC COMPOUND HAVING SELECTIVE INHIBITORY ACTION ON KRAS OVER HRAS AND NRAS” (CHUGAI SEIYAKU KABUSHIKI KAISHA, priority 2021, published 2024)
pIC50, pKd: −log10 of the molar value. Read-outs that look alike come from different tables or passages of the source.

Assays:
[1] = target: GDP-bound HRAS wild-type protein (Homo sapiens, UniProt P01112); assay: Binding to HRAS by surface plasmon resonance (SPR), Single Cycle Kinetics; details: for HRAS/KRAS (ratio of KD value with respect to GDP-bound HRAS wild-type protein to KD value with respect to KRAS): SPR KD ratio HRAS/KRAS, class symbols; for HRAS/KRAS (ratio of KD value for HRAS to KD value for KRAS) / ratio of the KD value with respect to GDP-bound HRAS wild-type protein to the KD value with respect to KRAS: SPR; for HRAS/KRAS (ratio of KD value for HRAS to KD value for KRAS): GDP-bound HRAS wild-type protein vs GDP-bound KRAS wild-type protein
GDP-bound HRAS wild-type protein, sequence (P01112 whole entry): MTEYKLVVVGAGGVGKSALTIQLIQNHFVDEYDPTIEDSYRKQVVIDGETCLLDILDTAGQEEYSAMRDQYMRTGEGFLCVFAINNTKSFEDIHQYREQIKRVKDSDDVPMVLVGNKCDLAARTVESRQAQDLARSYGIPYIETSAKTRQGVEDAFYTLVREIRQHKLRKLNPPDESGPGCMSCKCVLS

[2] = target: GDP-bound NRAS wild-type protein (Homo sapiens, UniProt P01111); assay: Binding to NRAS by surface plasmon resonance (SPR), Single Cycle Kinetics; details: for NRAS/KRAS (ratio of KD value with respect to GDP-bound NRAS wild-type protein to KD value with respect to KRAS): SPR KD ratio NRAS/KRAS, class symbols; for NRAS/KRAS (ratio of KD value for NRAS to KD value for KRAS) / ratio of the KD value with respect to GDP-bound NRAS wild-type protein to the KD value with respect to KRAS: SPR; for NRAS/KRAS (ratio of KD value for NRAS to KD value for KRAS): GDP-bound NRAS wild-type protein vs GDP-bound KRAS wild-type protein
GDP-bound NRAS wild-type protein, sequence (P01111 whole entry): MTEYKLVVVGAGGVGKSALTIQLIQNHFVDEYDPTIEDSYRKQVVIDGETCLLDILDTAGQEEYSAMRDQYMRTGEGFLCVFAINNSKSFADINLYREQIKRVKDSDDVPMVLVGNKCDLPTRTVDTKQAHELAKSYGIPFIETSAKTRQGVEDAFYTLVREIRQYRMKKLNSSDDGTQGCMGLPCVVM

[3] = target: GDP-bound KRAS wild-type protein (Homo sapiens, UniProt P01116); assay: Binding to KRAS by surface plasmon resonance (SPR), Single Cycle Kinetics; details: GDP-bound KRAS wild-type protein; for pKd: read-out: KRAS KD
GDP-bound KRAS wild-type protein, sequence (P01116 whole entry): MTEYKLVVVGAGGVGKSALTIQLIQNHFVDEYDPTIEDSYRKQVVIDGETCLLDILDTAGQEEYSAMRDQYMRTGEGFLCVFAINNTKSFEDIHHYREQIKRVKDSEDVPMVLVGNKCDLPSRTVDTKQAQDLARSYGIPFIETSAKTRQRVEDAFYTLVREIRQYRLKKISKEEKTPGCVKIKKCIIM

[4] = system: human lung cancer strain NCI-H441;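 further: cell proliferation inhibition after four days measured by CellTiter-Glo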
[5] = SPR Single Cycle Kinetics, 1:1 binding model
[6] = read-out: NCI-H441 cell proliferation inhibitory activity, 50% proliferation inhibitory concentration (IC50 value), NCI-H441, four days, CellTiter-Glo

Compound | HRAS/KRAS (ratio of KD value with respect to GDP-bound HRAS wild-type protein to KD value with respect to KRAS) [1] | NRAS/KRAS (ratio of KD value with respect to GDP-bound NRAS wild-type protein to KD value with respect to KRAS) [2] | pKd [3, 5] | pIC50 [4] | Kd ([3]; KRAS KD (M), SPR Single Cycle Kinetics, 1:1 binding model) [M] | HRAS/KRAS (ratio of KD value for HRAS to KD value for KRAS) [1] | NRAS/KRAS (ratio of KD value for NRAS to KD value for KRAS) [2] | pKd ([3]; SPR, Single Cycle Kinetics) | ratio of the KD value with respect to GDP-bound HRAS wild-type protein to the KD value with respect to KRAS [1] | ratio of the KD value with respect to GDP-bound NRAS wild-type protein to the KD value with respect to KRAS [2] | pIC50 [4, 6]
CCC[C@H]1C(=O)N[C@@H]([C@@H](C)CC)C(=O)N(C2CC2)CC(=O)N(C)[C@H]2C/C=C\CCN(C2=O)[C@@H](Cc2ccc(C(F)(F)F)cc2)C(=O)N(C)CC(=O)N[C@@H](CCc2cc(F)c(C(F)(F)F)c(F)c2)C(=O)N2C[C@H](OCC)C[C@H]2C(=O)NC2(CC(C)(C)C2)C(=O)N(C)[C@@H](CC2CCC2)C(=O)N(C)[C@H](C(=O)N(C)C)CC(=O)N1C [PP2768] | A (a compound having 10 or more and less than 20 is denoted as A) | A (a compound having 10 or more and less than 20 is denoted as A) | 8.26 | 6.92 |  |  |  |  |  |  | 
CCC[C@H]1C(=O)N[C@@H]([C@@H](C)CC)C(=O)N(C)CC(=O)N(C)[C@H]2C/C=C\CCN(C2=O)[C@@H](Cc2ccc(C(F)(F)F)cc2)C(=O)N(C)CC(=O)N[C@@H](CCc2cc(Cl)c3c(ccn3C)c2)C(=O)N2C[C@H](OCC)C[C@H]2C(=O)NC2(CC(C)(C)C2)C(=O)N(C)[C@@H](C(CC)CC)C(=O)N(C)[C@H](C(=O)N(C)C)CC(=O)N1C [PP2896] | A (a compound having 10 or more and less than 20 is denoted as A) | A (a compound having 10 or more and less than 20 is denoted as A) |  | 7.10 | 2.8e-09 |  |  |  |  |  | 
CCO[C@@H]1C[C@H]2C(=O)NC3(CC(C)(C)C3)C(=O)N(C)[C@@H](C(CC)CC)C(=O)N(C)[C@H](C(=O)N(C)C)CC(=O)N(C)[C@H]3CCC/C=C/c4ccc(cc4)C[C@@H](C(=O)N(C)CC(=O)N[C@@H](CCc4cc(F)c(C(F)(F)F)c(F)c4)C(=O)N2C1)N1CC/C=C\C[C@@H](C1=O)N(C)C(=O)CN(C1CC1)C(=O)[C@H]([C@@H](C)CC)NC3=O [PP2955] | A (a compound having 10 or more and less than 20 is denoted as A) | A (a compound having 10 or more and less than 20 is denoted as A) | 9.85 | 8.11 |  |  |  |  |  |  | 
CC[C@H](C)[C@@H]1NC(=O)[C@@H]2CCC/C=C/c3ccc(cc3)C[C@@H](C(=O)N(C)CC(=O)N[C@@H](CCc3ccc(Cl)c(Cl)c3)C(=O)N3C[C@H](OC4CCC4)C[C@H]3C(=O)NC3(CC(C)(C)C3)C(=O)N(C)[C@@H](C3CCCC3)C(=O)N(C)[C@H](C(=O)N(C)CC)CC(=O)N2C)N2CC/C=C\C[C@@H](C2=O)N(C)C(=O)CN(C)C1=O [PP3058] |  |  |  | 7.67 |  | A (a compound having 10 or more and less than 20 is denoted as A) | A (a compound having 10 or more and less than 20 is denoted as A) | 9.68 |  |  | 
CCO[C@@H]1C[C@H]2C(=O)N(C)C3(CC(C)(C)C3)C(=O)N(C)[C@@H](C3CCCC3)C(=O)N(C)[C@H](C(=O)N(C)C)CC(=O)N(C)[C@H]3CCC/C=C/c4ccc(cc4)C[C@@H](C(=O)N(C)CC(=O)N[C@@H](CCc4ccc(Cl)c(Cl)c4)C(=O)N2C1)N1CC/C=C\C[C@@H](C1=O)N(C)C(=O)CN(C)C(=O)[C@H]([C@@H](C)CC)NC3=O [PP3059] |  |  |  | 8.68 |  | A (a compound having 10 or more and less than 20 is denoted as A) | A (a compound having 10 or more and less than 20 is denoted as A) | 10.26 |  |  | 
CCO[C@@H]1C[C@H]2C(=O)N(C)C3(CC(C)(C)C3)C(=O)N(C)[C@@H](C3CCCC3)C(=O)N(C)[C@H](C(=O)N(C)C)CC(=O)N(C)[C@H]3CCC/C=C/c4ccc(cc4)C[C@@H](C(=O)N(C)CC(=O)N[C@@H](CCc4ccc(Cl)c(Cl)c4)C(=O)N2C1)N1CC/C=C\C[C@@H](C1=O)N(C)C(=O)CN(C1CC1)C(=O)[C@H]([C@@H](C)CC)NC3=O [PP3061] |  |  |  | 8.36 |  | A (a compound having 10 or more and less than 20 is denoted as A) | A (a compound having 10 or more and less than 20 is denoted as A) | 9.89 |  |  | 
CC[C@H](C)[C@@H]1NC(=O)[C@@H]2CCCCCc3ccc(cc3)C[C@@H](C(=O)N(C)CC(=O)N[C@@H](CCc3ccc(C(F)(F)F)c(OC)c3)C(=O)N3C[C@H](OC(C)C)C[C@H]3C(=O)NC3(CC(C)(C)C3)C(=O)N(C)[C@@H](C3CCCC3)C(=O)N(C)[C@H](C(=O)N(C)C)CC(=O)N2C)N2CC/C=C\C[C@@H](C2=O)N(C)C(=O)CN(C)C1=O [PP3072] |  |  |  |  |  | B (a compound having 3 or more and less than 10 is denoted as B) | A (a compound having 10 or more and less than 20 is denoted as A) | 10.32 | B (a compound having 3 or more and less than 10 is denoted as B) | A (a compound having 10 or more and less than 20 is denoted as A) | 8.59
CC[C@H](C)[C@@H]1NC(=O)[C@@H]2CCCCCc3ccc(cc3)C[C@@H](C(=O)N(C)CC(=O)N[C@@H](CCc3ccc(C(F)(F)F)c(OC)c3)C(=O)N3C[C@H](OC4CCC4)C[C@H]3C(=O)NC3(CC(C)(C)C3)C(=O)N(C)[C@@H](C3CCCC3)C(=O)N(C)[C@H](C(=O)N(C)C)CC(=O)N2C)N2CC/C=C\C[C@@H](C2=O)N(C)C(=O)CN(C)C1=O [PP3073] |  |  |  |  |  | A (a compound having 10 or more and less than 20 is denoted as A) | A (a compound having 10 or more and less than 20 is denoted as A) | 10.60 | A (a compound having 10 or more and less than 20 is denoted as A) | A (a compound having 10 or more and less than 20 is denoted as A) | 8.72
CC[C@H](C)[C@@H]1NC(=O)[C@@H]2CCCCCc3ccc(cc3)C[C@@H](C(=O)N(C)CC(=O)N[C@@H](CCc3ccc(C(F)(F)F)c(OC)c3)C(=O)N3CC4(CC4)C[C@H]3C(=O)NC3(CC(C)(C)C3)C(=O)N(C)[C@@H](C3CCCC3)C(=O)N(C)[C@H](C(=O)N(C)C)CC(=O)N2C)N2CC/C=C\C[C@@H](C2=O)N(C)C(=O)CN(C)C1=O [PP3074] |  |  |  |  |  | A (a compound having 10 or more and less than 20 is denoted as A) | A (a compound having 10 or more and less than 20 is denoted as A) | 10.60 | A (a compound having 10 or more and less than 20 is denoted as A) | A (a compound having 10 or more and less than 20 is denoted as A) | 8.62
CCO[C@@H]1C[C@H]2C(=O)NC3(CC(C)(C)C3)C(=O)N(C)[C@@H](C3CCCC3)C(=O)N(C)[C@H](C(=O)N(C)C)CC(=O)N(C)[C@H]3CCCCCc4ccc(cc4)C[C@@H](C(=O)N(C)CC(=O)N[C@@H](CCc4ccc(C(F)(F)F)c(OC)c4)C(=O)N2C1)N1CC/C=C\C[C@@H](C1=O)N(C)C(=O)CN(C1CC1)C(=O)[C@H]([C@@H](C)CC)NC3=O [PP3075] |  |  |  |  |  | A (a compound having 10 or more and less than 20 is denoted as A) | A (a compound having 10 or more and less than 20 is denoted as A) | 10.12 | A (a compound having 10 or more and less than 20 is denoted as A) | A (a compound having 10 or more and less than 20 is denoted as A) | 8.96
CCO[C@@H]1C[C@H]2C(=O)NC3(CC(C)(C)C3)C(=O)N(C)[C@@H](C3CCCC3)C(=O)N(C)[C@H](C(=O)N(C)C)CC(=O)N(C)[C@H]3CCCCCc4ccc(cc4)C[C@@H](C(=O)N(C)CC(=O)N[C@@H](CCc4ccc(Cl)c(Cl)c4)C(=O)N2C1)N1CC/C=C\C[C@@H](C1=O)N(C)C(=O)CN(C)C(=O)[C@H]([C@@H](C)CC)NC3=O [PP3076] |  |  |  |  |  | A (a compound having 10 or more and less than 20 is denoted as A) | AA (a compound having 20 or more is denoted as AA) | 10.23 | A (a compound having 10 or more and less than 20 is denoted as A) | AA (a compound having 20 or more is denoted as AA) | 8.39
CCCO[C@@H]1C[C@H]2C(=O)NC3(CC(C)(C)C3)C(=O)N(C)[C@@H](C3CCCC3)C(=O)N(C)[C@H](C(=O)N(C)C)CC(=O)N(C)[C@H]3CCCCc4ccc(cc4)C[C@@H](C(=O)N(C)CC(=O)N[C@@H](CCc4ccc(C(F)(F)F)c(OC)c4)C(=O)N2C1)N1CC/C=C\C[C@@H](C1=O)N(C)C(=O)CN(C)C(=O)[C@H]([C@@H](C)CC)NC3=O [PP3077] |  |  |  |  |  | B (a compound having 3 or more and less than 10 is denoted as B) | A (a compound having 10 or more and less than 20 is denoted as A) | 10.40 | B (a compound having 3 or more and less than 10 is denoted as B) | A (a compound having 10 or more and less than 20 is denoted as A) | 9.10
